Experimental data taken from patent publication US20200172975A1, “Cell-Free microRNA Signatures of Pancreatic Islet Beta Cell Death” (THE UNIVERSITY OF SYDNEY, priority 2017, published 2020).

Tested on: new-onset T1D individuals
Test: Clinical study of ingested interferon-α: residual C-peptide and microRNA signature of beta cell death
Format: in vivo, human
Text: In order to assess whether microRNAs could predict treatment efficacy, microRNAs were profiled from a de-identified clinical study set of samples from new-onset T1D individuals. These individuals received oral interferon-α at two doses as a therapy to preserve beta cell mass. The effect of ingested interferon-α on residual C-peptide (a measure of beta cell mass) at one year following treatment with 5000 units, 30,000 units or placebo was investigated.
Treatment groups are shown on the X-axis. The remaining beta-cell function measured as circulating C-peptide levels at 1 year (relative to baseline) are plotted on Y-axis (adjusted means, vertical bars denote 0.95 confidence intervals).

For interferon-α, the “remaining beta-cell function measured as circulating C-peptide levels at 1 year (relative to baseline)” value (30,000 units ingested IFN treatment group as compared to the Control group, FIG. 13) was “significant preservation of islet beta cell mass”, the “miRNA signature of beta cell death (abundance)” value (30,000 units ingested IFN treatment group, 12 months from study baseline) was “lower abundance” and the “microRNA signature of beta cell death” value (individuals showing the highest preservation of beta-cell mass at one year of treatment, FIG. 14) was “decreased”.
